The numbers were not newly measured in patent US20030104085A1, “Methods and compositions for treating back pain” (priority 2001, published 2003), which cites them from elsewhere.

Molecules are shown by their SMILES.

The subject of data set [1] is rats. The following applies: subcutaneous and epidural administration; cited from earlier work.
Data set [2] deals with nerve endings in the skin. The following applies: topical administration; cited from earlier work.

Consider `C=C(C)[C@]12C[C@@H](C)[C@@]34O[C@](Cc5ccccc5)(O[C@@H]1[C@@H]3C=C(COC(=O)Cc1ccc(O)c(OC)c1)C[C@]1(O)C(=O)C(C)=C[C@@H]41)O2` [RTX, resiniferatoxin], for which, in data set [1], the thermal analgesia entry is “produce thermal analgesia” and the “time without restoration of pain sensitivity” value is reported as “over 7 days”. For the same molecule, in data set [2], the “sensitivity to chemical pain stimulation” value is given as “long-lasting insensitivity to chemical pain stimulation”.
